Laboratory results: publication PMC5309245, “Discovery and Characterization of Diazenylaryl Sulfonic Acids as Inhibitors of Viral and Bacterial Neuraminidases” (Frontiers in Microbiology, 2017)
Counter-ions that a name gives are not always drawn. Like-named read-outs stand apart in the source and are kept apart here.

What was measured:
[1] = biological target: IAV HK/68 NA (whole virus) (Influenza A virus, UniProt Q91MA2); test: biochemical; set-up: species or system influenza A virus A/Hong Kong/68 (H3N2); conditions: for IC50: NA inhibition using FL assay IC50, IAV HK/68
human erythrocytes [2] = type: cell-based
Protocol: (§1) Viral (whole virus) and bacterial NA activity as well as their inhibition were measured by using a fluorescence (FL) assay with the substrate 2′-(4-methylumbelliferyl)-α-D-N-acetylneuraminic acid sodium salt hydrate (MUNANA, 100 μM; Sigma-Aldrich GmbH, Taufkirchen, Germany), and/or a hemagglutination (HA)-based NA inhibition assay (HA assay) with human erythrocytes (Institute of Transfusion Medicine, University Hospital Jena, Jena, Germany), both assays as published recently (Richter et al., [2015]). Recombinant NanA (rNanA) and total precipitated bacterial protein of S. pneumoniae DSM20566 were used in FL and HA assays. Interference of the compounds with the FL signal (self-fluorescence and quenching) was excluded as described previously (Richter et al., [2015]). […] Each compound was tested at least three times in both NA inhibition assays.
Supplementary Table 1. Assay interference phenomena of test compounds in the HA-based […]
sample concentrations [µM] in viral HA-assay bacterial HA-assay […]
hem- prevention of erythrocyte hem- erythrocyte agglutinationa virus-induced lysisc agglutinationd lysise […]
cTest compounds lysed the human erythrocytes (2 h at 4°C). […]

human erythrocytes [3] = type: cell-based; remark: listed apart in the source
Protocol: as §1
Supplementary Table 1. […]
eTest compounds lysed the human erythrocytes (4 h at 37°C and 12 h at 4°C).

in vitro = conditions: dog
[4] = system: S. pneumoniae DSM20566 biofilm; test: Biofilm inhibition assay; type: cell-based, Streptococcus pneumoniae DSM20566; conditions: for inhibition at 50 µM: Streptococcus pneumoniae, DSM20566, read-out: Inhibition of biofilm formation at the maximum tested concentration; for 50% inhibitory concentration, S. pneumoniae DSM20566 biofilm formation: 24 h, maximum 50 μM
[5] = biological target: T1, S. pneumoniae DSM20566 NA (NanA) (Streptococcus pneumoniae, UniProt P62575); test: FL NA inhibition assay, S. pneumoniae DSM20566; type: biochemical
T1 construct: host or cells: either rNanA from E. coli BL21(DE3) or total precipitated protein of S. pneumoniae DSM20566

[6] = system: 8178/09-, WSN/33-, or HK/68-induced cytopathic effect; test: CPE inhibition assay (viruses not separated); type: cell-based; conditions: Influenza A virus, MDCK, read-out: IC50 of inhibition of the 8178/09-, WSN/33-, or HK/68-induced cytopathic effect
S. pneumoniae DSM20566 [7] = test: Bactericidal or bacteriostatic activity (subculture on blood agar); type: cell-based, Streptococcus pneumoniae DSM20566; conditions: for cfu per agar plate: 18 h, then subculture
[8] = system: influenza A virus 8178/09; test: microbe, parasite or virus in culture; type: cell-based, influenza A virus A/Jena/8178/2009 (H1N1); conditions: for IC50: Influenza A virus, MDCK, 48 h, read-out: 50% inhibitory concentration, influenza A virus 8178/09
influenza A virus WSN/33 = test: microbe, parasite or virus in culture; type: cell-based, influenza A virus A/WSN/1933 (H1N1); conditions: for IC50: Influenza A virus, WSN, MDCK, 48 h, read-out: 50% inhibitory concentration, influenza A virus WSN/33
[9] = biological target: T2, S. pneumoniae DSM20566 NA (Streptococcus pneumoniae, UniProt P62575); test: HA-based NA inhibition assay, S. pneumoniae DSM20566; type: cell-based
T2 construct: host or cells: either rNanA from E. coli BL21(DE3) or total precipitated protein of S. pneumoniae DSM20566

S. pneumoniae DSM20566 [10] = test: Microtiter broth microdilution assay, planktonic growth; type: cell-based, Streptococcus pneumoniae DSM20566; conditions: 18 h, maximum 50 μM; for IC50: Streptococcus pneumoniae, DSM20566, read-out: 50% inhibitory concentration, S. pneumoniae DSM20566 planktonic growth
influenza A virus HK/68 = test: microbe, parasite or virus in culture; type: cell-based, influenza A virus A/Hong Kong/68 (H3N2); conditions: for IC50: Influenza A virus, MDCK, 48 h, read-out: 50% inhibitory concentration, influenza A virus HK/68
IAV 5258/09 NA = test: Hemagglutination (HA)-based NA inhibition assay, IAV 5258/09; type: cell-based, influenza A virus A/Jena/5258/2009 (H1N1); conditions: human erythrocytes
[11] = biological target: IAV WSN/33 NA-wt (whole virus) (Influenza A virus, UniProt P03470); test: biochemical; set-up: species or system influenza A virus A/WSN/1933 (H1N1); conditions: for IC50: NA inhibition using FL assay IC50, IAV WSN/33
[12] = biological target: S. pneumoniae recombinant NanA 20566_LC (Streptococcus pneumoniae, UniProt P62575); test: biochemical; set-up: species or system Streptococcus pneumoniae DSM20566; conditions: Km for MUNANA, kinetics with 1
[13] = biological target: S. pneumoniae recombinant NanA 9400_LC (Streptococcus pneumoniae, UniProt P62575); test: biochemical; set-up: species or system Streptococcus pneumoniae CJ9400; conditions: Km for MUNANA, kinetics with 1
[14] = biological target: S. pneumoniae recombinant NanA 8919_LC (Streptococcus pneumoniae, UniProt P62575); test: biochemical; type: biochemical, Streptococcus pneumoniae CF8919; conditions: Km for MUNANA, kinetics with 1
[15] = biological target: Influenza virus A/WSN/33 NA-wt (whole virus) (Influenza A virus, UniProt P03470); type: biochemical, influenza A virus A/WSN/1933 (H1N1); conditions: Km for MUNANA, kinetics with 1
[16] = biological target: S. pneumoniae recombinant NanA 9400_CC (Streptococcus pneumoniae, UniProt P62575); test: biochemical; type: biochemical, Streptococcus pneumoniae CJ9400; conditions: Km for MUNANA, kinetics with 1
[17] = biological target: S. pneumoniae recombinant NanA 20566_CC (Streptococcus pneumoniae, UniProt P62575); test: biochemical; set-up: species or system Streptococcus pneumoniae DSM20566; conditions: Km for MUNANA, kinetics with 1
[18] = human erythrocytes, 4 h at 37°C and 12 h at 4°C
[19] = MUNANA substrate, read-out: NA inhibition using FL assay IC50, S. p. DSM20566

Structure (SMILES) | IC50 [1] | CC50 (in vitro) | inhibition at 50 µM [4] | IC50 [6] | IC50 [8] | IC50 (influenza A virus WSN/33) | IC50 (S. pneumoniae DSM20566 [10]) | IC50 (influenza A virus HK/68) | NA inhibition using HA assay MIC, IAV 5258/09 (IAV 5258/09 NA) | sample concentrations provoking erythrocyte lysis, viral HA-assay (human erythrocytes [2]; human erythrocytes, 2 h at 4°C) | sample concentrations provoking erythrocyte lysis, bacterial HA-assay (human erythrocytes [3]; [18]) | IC50 [5, 19] | NA inhibition using FL assay IC50, IAV WSN/33 [11] | NA inhibition using HA assay MIC, S. p. DSM20566 ([9]; human erythrocytes) | other results
O=S(=O)(O)c1ccc2c(/N=N/c3ccc(Sc4ccc(/N=N/c5c(O)ccc6cc(S(=O)(=O)O)ccc56)cc4)cc3)c(O)ccc2c1 [Compound 2] | 83 ± 5.67 µM | > 100 µM | 47% | < 15 µM | 9.09 ± 1.94 µM | 11.8 ± 3.19 µM | 4.59 ± 2.45 µM | 6.19 ± 4.62 µM | – | – | – | – | – | – | sample concentrations provoking erythrocyte lysis, viral HA-assay (human erythrocytes [2]): no; sample concentrations provoking erythrocyte lysis, bacterial HA-assay (human erythrocytes [3]): no; IC50 ([5]; NA inhibition using FL assay IC50, S. p. DSM20566): 1.85 ± 0.1 µM; Activity (bactericidal or bacteriostatic) (S. pneumoniae DSM20566 [7]; 25 µM): bacteriostatic; cfu per agar plate (S. pneumoniae DSM20566 [7]; 25 µM): > 150; Activity (bactericidal or bacteriostatic) (S. pneumoniae DSM20566 [7]; 50 µM): bacteriostatic; cfu per agar plate (S. pneumoniae DSM20566 [7]; 50 µM): > 150; NA inhibition using HA assay MIC, S. p. DSM20566 [9]: 10.00 ± 0.00 µM
O=S(=O)(O)c1ccc2c(/N=N/c3ccc(/N=N/c4ccccc4)cc3)c(O)ccc2c1 [Compound 3] | – | > 100 µM | – | < 15 µM | 14.4 ± 8.16 µM | 52.2 ± 17.9 µM | 20.1 ± 2.24 µM | 13.6 ± 3.18 µM | Not active^c | no | no | 11.6 ± 0.15 µM | Not active | Not active^c | NA inhibition using FL assay IC50, IAV HK/68 [1]: Not active; 50% inhibitory concentration, S. pneumoniae DSM20566 biofilm formation [4]: Not active
Cc1ccccc1/N=N/c1ccc(/N=N/c2c(O)ccc3cc(S(=O)(=O)O)ccc23)c(C)c1 [Compound 4] | 71.1 ± 22 µM | > 100 µM | 46% | < 15 µM | 12.1 ± 4.83 µM | 14 ± 2.68 µM | 12 ± 6.81 µM | 13.2 ± 3.11 µM | Not active^c | no | 100 µM | 4.79 ± 1.31 µM | Not active | Not active^c | –
O=S(=O)(O)c1ccc(/N=N/c2ccc(/N=N/c3ccc(O)c4ccccc34)cc2)cc1 [Compound 6] | 83.4 ± 3.67 µM | > 100 µM | 46% | < 15 µM | 10.6 ± 0.71 µM | 24.2 ± 9.78 µM | 6.14 ± 0.61 µM | 20.8 ± 1.99 µM | 24.40 ± 12.47 µM | no | no | 1.18 ± 0.55 µM | – | Not active^c | IC50 [11]: 36.4 ± 4.2 µM
COc1cc(/N=N/c2ccc(S(=O)(=O)O)cc2)ccc1/N=N/c1c(O)ccc2ccccc12 [Compound 7] | 87.2 ± 8.03 µM | > 100 µM | 46% | < 15 µM | 3.28 ± 2.19 µM | 78.6 ± 16.2 µM | 3.32 ± 0.72 µM | 4.22 ± 0.98 µM | Not active^c | no | no | 5.6 ± 3.01 µM | – | Not active^c | IC50 [11]: 4.25 ± 1.25 µM
O=S(=O)(O)c1cc2cccc(S(=O)(=O)O)c2c(O)c1/N=N/c1ccccc1 [Compound 17] | – | > 100 µM | – | – | – | – | – | – | Not active | no | no | – | Not active | Not active | NA inhibition using FL assay IC50, IAV HK/68 [1]: Not active; 50% inhibitory concentration, S. pneumoniae DSM20566 biofilm formation [4]: Not active; NA inhibition using FL assay IC50, S. p. DSM20566 ([5]; MUNANA substrate): Not active; 50% inhibitory concentration, influenza A virus 8178/09 [8]: Not active; 50% inhibitory concentration, influenza A virus WSN/33 (influenza A virus WSN/33): Not active; 50% inhibitory concentration, S. pneumoniae DSM20566 planktonic growth (S. pneumoniae DSM20566 [10]): Not active; 50% inhibitory concentration, influenza A virus HK/68 (influenza A virus HK/68): Not active
C[C@@H](O)[C@H]1C(=O)N2C(C(=O)O)=C(SCCN=CN)C[C@H]12 [Imipenem, imipenem, reference compound] | – | – | – | – | – | – | – | – | – | – | – | – | – | – | Activity (bactericidal or bacteriostatic) (S. pneumoniae DSM20566 [7]; 0.1 µM): bactericidal; cfu per agar plate (S. pneumoniae DSM20566 [7]; 0.1 µM): < 150
CC(=O)N[C@H]1[C@H]([C@H](O)[C@H](O)CO)O[C@@](Oc2ccc3c(C)cc(=O)oc3c2)(C(=O)O)C[C@@H]1O [MUNANA, 2′-(4-methylumbelliferyl)-α-D-N-acetylneuraminic acid sodium salt hydrate, reference compound] | – | – | – | – | – | – | – | – | – | – | – | – | – | – | Km [12]: 17.9 ± 2.12 µM; Km [13]: 46.2 ± 1.71 µM; Km [14]: 18 ± 2.39 µM; Km ([15]; 20 min preincubation): 44.2 ± 4.63 µM; Km ([15]; without preincubation (n = 2)): 40 ± 3.86 µM; Km [16]: 46.4 ± 3.93 µM; Km [17]: 20.2 ± 4.74 µM
